Values joined by “and” are separate entries in the source; they are usually repeats but may differ in a detail not shown here. Equal entries are not always repeated. Where a SMILES comes first, the peptide text is derived from it. [ ]: non-standard residue; d: D form. NMeF = CN[C@@H](Cc1ccccc1)C(=O)O; Thz = O=C(O)[C@@H]1CSCN1
Tested on: rat
Experiment: rat tail withdrawal assay (hot water, 55°C)
Type: in vivo
Conditions: for analgesic activity: general statement, route and dose not stated
Description: The acetate salts of formula I described in Examples 1 to 3 were tested for analgesic activity in the rat tail withdrawal assay. […] Latencies of 5 seconds or greater indicate strong analgesic activity and 20 seconds is a maximum response in this test. The peptides were administered intracisternally or intravenously.
The formula I acetate of Example 2 was dissolved in a sufficient sterile, distilled water to give an injection volume of 1 ml/kg of body weight and administered to rats as a bolus i.v. injection at several dosages.

With `NC(=O)[C@@H]1CSCN1C(=O)[C@H](Cc1ccccc1)NC(=O)[C@@H]1CCCN1C(=O)[C@@H](N)Cc1ccc(O)cc1` [Example 1, L-Tyrosyl-L-Prolyl-L-Phenylalanyl-L-Thiazolidine-4-carboxyl·amide Acetate] (H-YPF[Thz]-NH2) the analgesic activity was “high analgesic activity”.

For `CN(C(=O)[C@@H]1CCCN1C(=O)[C@@H](N)Cc1ccc(O)cc1)[C@@H](Cc1ccccc1)C(=O)N1CCC[C@@H]1C(N)=O` [Example 2, L-Tyrosyl-L-Prolyl-N-Methyl-L-Phenylalanyl-D-Prolinamide-Acetate] (H-YP[NMeF][dP]-NH2), the “Latency of Tail Withdrawal” value (i.v. bolus, 2.5 mg/kg, 5 min. after injection) was 2 s, the “Latency of Tail Withdrawal” value (i.v. bolus, 5.0 mg/kg, 5 min. after injection) was 8.4 ± 3.6 s and the “Latency of Tail Withdrawal” value (i.v. bolus, 10.0 mg/kg, 5 min. after injection) was 10.2 ± 3.2 s. For the same compound, the “Latency of Tail Withdrawal” value (i.v. bolus, 10.0 mg/kg, 15 min. after injection) was 11.1 ± 3.1 s, the “Latency of Tail Withdrawal” value (i.v. bolus, 10.0 mg/kg, 30 min. after injection) was 7.5 ± 2.5 s and the “Latency of Tail Withdrawal” value (i.v. bolus, 10.0 mg/kg, 60 min. after injection) was 6.4 ± 2.3 s. The “Latency of Tail Withdrawal” value (i.v., 2.5 mg/kg, 15 min. after injection) was 3.5 s, the “Latency of Tail Withdrawal” value (i.v., 2.5 mg/kg, 30 min. after injection) was 3.0 s and the “Latency of Tail Withdrawal” value (i.v., 2.5 mg/kg, 60 min. after injection) was 2.5 s. The “Latency of Tail Withdrawal” value (i.v., 5.0 mg/kg, 15 min. after injection) was 10.3 ± 3.1 s, the “Latency of Tail Withdrawal” value (i.v., 5.0 mg/kg, 30 min. after injection) was 9.1 ± 3.4 s and the “Latency of Tail Withdrawal” value (i.v., 5.0 mg/kg, 60 min. after injection) was 7.8 ± 3.0 s. The Comments (i.v., 5.0 mg/kg, observed behaviour) was “Individual rats showed 20 sec. latencies and morphine-like symptoms”.

With `CN(C(=O)[C@@H]1CCCN1C(=O)[C@@H](N)Cc1ccc(O)cc1)[C@@H](Cc1ccccc1)C(=O)N1CCC[C@@H]1CO` [Example 3, L-Tyrosyl-L-Prolyl-N-Methyl-L-Phenylalanyl-D-Prolinol· Acetate] the analgesic activity was “high analgesic activity”.

With `CN(C(=O)[C@@H]1CSCN1C(=O)[C@@H](N)Cc1ccc(O)cc1)[C@@H](Cc1ccccc1)C(=O)N1CCC[C@@H]1C(N)=O` [Tyr-Thz-N-Me-Phe-D-Pro-NFi2] (H-Y[Thz][NMeF][dP]-NH2) the analgesic activity was “high analgesic activity”.

In the case of `CN1CC[C@]23c4c5ccc(O)c4O[C@H]2[C@@H](O)C=C[C@H]3[C@H]1C5` [morphine, reference compound], the “Latency of Tail Withdrawal” value (rat, in vivo, iv, 2.5 mg/kg) is reported as 5 s and 6 s and 4.1 s, the Comments (rat, in vivo, iv, 5 mg/kg) is reported as “Catalepsy Rigidity” and the “Latency of Tail Withdrawal” value (rat, in vivo, iv, 5 mg/kg) is reported as 20 s. For the same compound, the “Latency of Tail Withdrawal” value (rat, in vivo, iv, 7.5 mg/kg) was 20 s.

Source: patent publication EP0053029A1, “Non enkephalin-like peptides, their production, compositions containing them, and their medical and veterinary use” (PENINSULA LABORATORIES INCORPORATED, priority 1980, dated 1982)
